Measurements reported in US8658604B2, “Template-fixed beta-hairpin peptidomimetics with protease inhibitory activity” (Polyphor Ltd, priority 2005, dated 2014).
Like-named read-outs stand apart in the source and are kept apart here. Where a SMILES comes first, the peptide text is derived from it.

Columns and labels:
[1] = target: T1, Trypsin, from human pancreas (Homo sapiens, UniProt P07477)
[2] = target: T2, Chymase, from human skin (Homo sapiens, UniProt P23946)
T2 sequence (P23946 22-247): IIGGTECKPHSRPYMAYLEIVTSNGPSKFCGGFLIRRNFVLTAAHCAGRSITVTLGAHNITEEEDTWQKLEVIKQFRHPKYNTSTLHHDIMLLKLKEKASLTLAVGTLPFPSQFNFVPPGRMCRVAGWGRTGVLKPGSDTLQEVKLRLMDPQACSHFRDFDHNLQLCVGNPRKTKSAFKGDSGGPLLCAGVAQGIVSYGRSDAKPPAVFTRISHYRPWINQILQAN

[3] = target: T3, Chymotrypsin, from human pancreas (Homo sapiens, UniProt P17538)
[4] = target: T4, Elastase from human neutrophils (Homo sapiens, UniProt P08246); experiment: Enzymatic assay, elastase
T4 sequence (P08246 30-267): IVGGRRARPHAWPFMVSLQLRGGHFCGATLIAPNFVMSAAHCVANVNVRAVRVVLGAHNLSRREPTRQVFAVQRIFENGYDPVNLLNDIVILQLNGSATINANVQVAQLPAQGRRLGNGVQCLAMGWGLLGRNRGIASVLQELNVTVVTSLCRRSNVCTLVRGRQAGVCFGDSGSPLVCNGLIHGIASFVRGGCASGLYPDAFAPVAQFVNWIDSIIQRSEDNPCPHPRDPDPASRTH

[5] = target: T5, CathepsinG, from human neutrophils (Homo sapiens, UniProt P08311); experiment: Enzymatic assay, cathepsin G; conditions: Cathepsin G IC50
T5 sequence (P08311 21-244): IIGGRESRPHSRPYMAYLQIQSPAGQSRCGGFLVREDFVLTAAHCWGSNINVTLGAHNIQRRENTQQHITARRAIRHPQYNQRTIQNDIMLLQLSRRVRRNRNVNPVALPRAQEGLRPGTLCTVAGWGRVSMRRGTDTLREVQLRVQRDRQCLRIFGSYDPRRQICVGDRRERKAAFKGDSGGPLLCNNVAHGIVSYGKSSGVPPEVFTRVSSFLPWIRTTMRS

[6] = format: in vitro ADME; conditions: 10 µM
Protocol: 405 μl of plasma/albumin solution were placed in a polypropylene (PP) tube and spiked with 45 μl of compound from a […] solution B, derived from 135 μl of PBS and 15 μl of 1 mM peptide in PBS, pH 7.4. 150 μl aliquots were transferred into individual wells of the 10 kDa filter plate (Millipore MAPPB 1010 Biomax membrane). For “0 minutes controls”: 270 μl of PBS were placed in a PP tube and 30 μl of stock solution B was added and vortexed. 150 μl of control solution were placed into one well of the filter plate and served as “filtered control”.
Further 150 μl of control solution were placed directly into a receiver well (reserved for filtrate) and served as “not-filtered control”. The entire plate including evaporation lid was incubated for 60 min at 37° C. Plasma samples (rat plasma: Harlan Sera lab UK, human plasma: Blutspendezentrum Zürich) were centrifuged at least for 2 h at 4300 rpm (3500 g) and 15° C. in order to yield 100 filtrate. For “serum albumin”-samples (freshly prepared human albumin: Sigma A-4327, rat albumin: Sigma A-6272, all at 40 mg/ml concentration in PBS) approximately 1 hour of centrifugation was sufficient. The filtrates in the receiver PP plate were analysed by LC/MS as follower follows: Column: Jupiter C18 (Phenomenex), mobile phases: (A) 0.1% formic acid in water and (B) acetonitrile, gradient: 5%-100% (B) in 2 minutes, electrospray ionization, MRM detection (triple quadrupole). The peak areas were determined and triplicate values were averaged. The binding was expressed in percent of the (filtered and not-filtered time point 0 min) control 1 and 2 by: 100−(100×T60/T0). The average from these values was then calculated.

[7] = Pharmacokinetic study after single oral (gavage) and intravenous administration in rats; conditions: rat
Protocol: 2.6. Pharmacokinetic Study (PK)
Pharmacokinetic Study after Single Oral (Gavage) and Intravenous Administration in Rats
Blood samples (approx. 0.24 ml) were taken following the schedule below at different time points into heparinized tubes by automated blood sampling using the DiLab AccuSampler. When a problem occurred during automated blood sampling, blood was sampled by retro-orbital bleeding under light isoflurane anesthesia. Samples were taken at the following time points: 0, 5 min (only i.v.), 15, 30 min and 1, 2, 4, 8, 16, 24 and 36 (only p.o.) hours and added to heparinized tubes. Plasma was removed from pelleted cells upon centrifugation and frozen at −80° C. prior to HPLC-MS analysis.
Preparation of the Plasma Calibration Samples
“Blank” rat plasma from untreated animals was used. […] The OASIS® HLB cartridges were conditioned with 1 ml of methanol and then with 1 ml of 1% NH3 in water. Samples were then diluted with 400 μl of 1% NH3 in water and loaded. The plate was washed with 1 ml of methanol/1% NH3 in water 5/95. Elution was performed using 1 ml of 0.1% TFA in methanol.
The plate containing eluates was introduced into the concentrator system and taken to dryness. The residues were dissolved in 100 μl of formic acid 0.1%/acetonitrile, 95/5 (v/v) and analysed in the HPLC/MS on a reverse phase analytical column (Jupiter C18, 50×2.0 mm, 5 μm, Phenomenex), using gradient elution (mobile phases A: 0.1% formic acid in water, B: Acetonitrile; from 5% B to 100% B in 2 min.).
Preparation of Plasma Samples
From each sample 100 μl of plasma were taken for the extraction. If the volume was less than 100 μl the appropriate amount of “blank” mouse plasma was added in order to keep the matrix identical to the calibration curve. Samples were then spiked with IS and processed as described for the calibration curve.
Pharmacokinetic Evaluation
The area under the curve AUC was calculated by the linear trapezoidal rule. AUC(t-∞) was estimated as Ct/b (b: elimination rate constant). […] the sum of AUC(0-t) and AUC(t-∞). Elimination half-life was calculated by the linear regression on at least three data points during the elimination phase. The time intervals selected for the half-life determinations were evaluated by the correlation coefficient (r^2), which should be at least above 0.85 and most optimally above 0.96. In case of i.v. administration the initial concentration at tzero was determined by extrapolation of the curve through the first two time points.

[8] = target: T1, Trypsin, from human pancreas; experiment: Enzymatic assay, trypsin; conditions: at 100 μM
[9] = target: T2, Chymase, from human skin; experiment: Enzymatic assay, chymase
[10] = target: T6, Thrombin, from Human Plasma (Homo sapiens, UniProt P00734); experiment: Enzymatic assay, thrombin
[11] = system: Tryptase, from human lung; experiment: Enzymatic assay, tryptase; conditions: at 100 μM
[12] = target: Urokinase from human urine (Homo sapiens, UniProt P00749); experiment: Enzymatic assay, urokinase
[13] = target: T3, Chymotrypsin, from human pancreas; experiment: Enzymatic assay, chymotrypsin
[14] = target: T7, Coagulation Factor Xa, from uman plasma (Homo sapiens, UniProt P00742); experiment: Enzymatic assay, coagulation factor Xa
[15] = system: HELA cells (Acc57); experiment: Cytotoxicity assay (MTT reduction), HELA cells; format: cell-based; conditions: Hela cells
Summary of the method: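 HeLa cells were grown for 24 h, then exposed to peptides at 12.5, 25 and 50 μM in triplicate for 48 h at 37 °C. MTT reduction was read at 595 nm and growth % calculated relative to time-zero wells. LC50 interpolated by linear trend at −50% growth, GI50 at 50%.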

[16] = target: T5, CathepsinG, from human neutrophils
[17] = target: T6, Thrombin, from Human Plasma
[18] = target: T7, Coagulation Factor Xa, from uman plasma

T3 sequence (P17538 19-263): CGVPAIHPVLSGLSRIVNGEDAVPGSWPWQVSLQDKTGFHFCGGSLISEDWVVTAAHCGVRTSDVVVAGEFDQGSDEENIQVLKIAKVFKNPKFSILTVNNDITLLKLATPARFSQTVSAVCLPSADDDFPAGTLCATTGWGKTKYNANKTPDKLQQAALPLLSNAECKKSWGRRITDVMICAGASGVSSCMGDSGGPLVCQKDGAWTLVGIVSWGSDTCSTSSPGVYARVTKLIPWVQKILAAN
T7 sequence (P00742 235-488 limits assumed): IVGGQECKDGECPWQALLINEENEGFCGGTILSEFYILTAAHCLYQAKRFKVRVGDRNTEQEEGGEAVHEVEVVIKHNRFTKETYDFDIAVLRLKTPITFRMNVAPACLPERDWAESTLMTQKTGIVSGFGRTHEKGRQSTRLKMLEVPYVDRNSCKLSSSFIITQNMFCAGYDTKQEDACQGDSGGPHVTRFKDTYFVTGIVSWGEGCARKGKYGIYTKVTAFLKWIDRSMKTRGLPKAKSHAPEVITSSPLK
T7 sequence (P00742 41-179 limits assumed): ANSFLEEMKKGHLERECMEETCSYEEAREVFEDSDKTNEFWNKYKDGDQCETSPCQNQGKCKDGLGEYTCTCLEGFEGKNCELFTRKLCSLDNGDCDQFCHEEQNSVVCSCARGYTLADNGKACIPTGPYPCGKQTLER

In the case of `CC[C@H](C)[C@@H]1NC(=O)[C@@H]2CCCN2C(=O)[C@@H]2CCCN2C(=O)[C@H](CCC(=O)O)NC(=O)[C@H](CO)NC(=O)[C@H](CCCCN)NC(=O)[C@H]([C@@H](C)O)NC(=O)[C@@H]2CSSC[C@H](NC1=O)C(=O)N[C@@H](CO)C(=O)N1CCC[C@@H]1C(=O)N1CCC[C@H]1C(=O)N[C@@H](Cc1ccccc1)C(=O)N2` [Ex. 21] (HELM PEPTIDE1{F.C.T.K.S.E.P.P.I.C.S.[dP].P}$PEPTIDE1,PEPTIDE1,2:R3-10:R3|PEPTIDE1,PEPTIDE1,1:R1-13:R2$$$V2.0), the “Trypsin at 100 μM %” value [1] is reported as 95.6%, the “Chymase at 100 μM %” value [2] is reported as 5% and the “Chymotrypsin at 100 μM %” value [3] is reported as 2.6%. It also gave an IC50 ([4]; Elastase IC50) of 16.4 nM and an IC50 [5] of 97 nM.
For `CC[C@H](C)[C@@H]1NC(=O)[C@@H]2CCCN2C(=O)[C@@H]2CCCN2C(=O)[C@H](CC(=O)O)NC(=O)[C@H](CO)NC(=O)[C@H](CCCCN)NC(=O)[C@H]([C@@H](C)O)NC(=O)[C@@H]2CSSC[C@H](NC1=O)C(=O)N[C@@H](Cc1ccccc1)C(=O)N1CCC[C@@H]1C(=O)N1CCC[C@H]1C(=O)N[C@@H](CCCNC(=N)N)C(=O)N2` [Ex. 75] (HELM PEPTIDE1{R.C.T.K.S.D.P.P.I.C.F.[dP].P}$PEPTIDE1,PEPTIDE1,2:R3-10:R3|PEPTIDE1,PEPTIDE1,1:R1-13:R2$$$V2.0), the “Stability human Plasma t1/2” value [6] was 5 h, the “Stability rat Plasma t1/2” value [6] was 5 h and the half-life ([7]; male, Wistar, in vivo, iv, 5 mg/kg) was 0.5 h. The level at 0.25 h ([7]; male, Wistar, iv, 5 mg/kg) was 5770 ng/mL, the level at 0.5 h ([7]; male, Wistar, iv, 5 mg/kg) was 3460 ng/mL and the level at 4 h ([7]; male, Wistar, iv, 5 mg/kg) was 18 ng/mL. For the same compound, the Cmax ([7]; male, Wistar, po) was 46 ng/mL, the “Vd (apparent distribution volume)” value ([7]; male, Wistar, po, 50 mg/kg) was 1.008 L/kg and the level at 4 h ([7]; male, Wistar, po, 50 mg/kg) was 24 ng/mL. The “apparent distribution volume after oral administration, fold higher than after i.v.” value [7] was “about 1.8 fold”, the “% absorbed (F) (percentage of normalized AUC0-∞ po. against normalized AUC0-∞ i.v.)” value ([7]; 5 mg/kg) was 100% and the “% absorbed (F) (percentage of normalized AUC0-∞ po. against normalized AUC0-∞ i.v.)” value ([7]; 50 mg/kg) was 1.3%. It also gave a Cmax norm ([7]; iv, 5 mg/kg) of 0.08 ng/mL, an initial distribution volume ([7]; iv, 5 mg/kg) of 355 mL/kg and a Cmax norm ([7]; po, 50 mg/kg) of 0.25 ng/mL. The “Trypsin at 100 μM %” value [8] was 92.6%, the “Chymase at 100 μM %” value [9] was 0% and the “Elastase at 100 μM %” value ([4]; at 100 μM (stated in cell instead of IC50)) was 69.1 at %. For the same compound, the “Thrombin at 100 μM %” value [10] was 1.1%, the “Tryptase at 100 μM %” value [11] was 0% and the “Urokinase at 100 μM %” value [12] was 5.7%. The IC50 [5] was 86 nM, the “Chymotrypsin at 100 μM %” value ([13]; at 100 μM) was 7.8 at 100 μM % and the “FXa at 100 μM %” value [14] was 5.7%.
With `CCCCCCCC[C@@H]1NC(=O)[C@H](CO)NC(=O)[C@H](C)NC(=O)[C@H]([C@@H](C)O)NC(=O)[C@@H]2CSSC[C@H](NC(=O)[C@H](CCC(N)=O)NC(=O)[C@@H]3CCCN3C(=O)[C@@H]3CCCN3C1=O)C(=O)N[C@@H](Cc1ccc(O)cc1)C(=O)N1CCC[C@@H]1C(=O)N1CCC[C@H]1C(=O)N[C@@H](CCCC)C(=O)N2` [Ex. 81] (HELM PEPTIDE1{[Nle].C.T.A.S.[CCCCCCCC[C@H](N[*:1])C(=O)[*:2]].P.P.Q.C.Y.[dP].P}$PEPTIDE1,PEPTIDE1,2:R3-10:R3|PEPTIDE1,PEPTIDE1,1:R1-13:R2$$$V2.0) the Cytotoxicity LC50/GI50 Hela cells [15] was 58000 nM, the “Cathepsin G at 100 μM %” value [16] was 61.3 at 100% and the “Thrombin at 100 μM %” value [17] was 13.1%. The “FXa at 100 μM %” value [18] was 8.7%, the IC50 ([4]; Elastase IC50) was 28 nM and the IC50 [13] was 100000 nM.
In the case of `CCCC[C@@H]1NC(=O)[C@@H]2CCCN2C(=O)[C@@H](C)NC(=O)[C@H](Cc2ccc(O)cc2)NC(=O)[C@@H]2CSSC[C@H](NC1=O)C(=O)N[C@@H]([C@@H](C)O)C(=O)N[C@@H](C)C(=O)N[C@@H](CO)C(=O)N[C@@H]([C@@H](C)CC)C(=O)N1CCC[C@H]1C(=O)N1CCC[C@H]1C(=O)N[C@@H](CCC(N)=O)C(=O)N2` [Ex. 130] (HELM PEPTIDE1{[Nle].C.T.A.S.I.P.P.Q.C.Y.[dA].P}$PEPTIDE1,PEPTIDE1,2:R3-10:R3|PEPTIDE1,PEPTIDE1,1:R1-13:R2$$$V2.0), the “Chymase at 100 μM %” value [2] is reported as less than 4000% and the IC50 ([4]; Elastase IC50) is reported as 29 nM.
For `CCCC[C@@H]1NC(=O)[C@@H]2CCCN2C(=O)[C@H]2CCCN2C(=O)[C@H](CCC(N)=O)NC(=O)[C@@H]2CSSC[C@H](NC1=O)C(=O)N[C@@H]([C@@H](C)O)C(=O)N[C@@H](C)C(=O)N[C@@H](CO)C(=O)N[C@@H]([C@@H](C)CC)C(=O)N1CCC[C@H]1C(=O)N1CCC[C@H]1C(=O)N[C@@H](CCC(N)=O)C(=O)N2` [Ex. 131] (HELM PEPTIDE1{[Nle].C.T.A.S.I.P.P.Q.C.Q.[dP].P}$PEPTIDE1,PEPTIDE1,2:R3-10:R3|PEPTIDE1,PEPTIDE1,1:R1-13:R2$$$V2.0), the “Trypsin at 100 μM %” value [1] was 0%, the IC50 ([4]; read-out: Elastase IC50) was 28 nM and the IC50 [5] was 45 nM.
